Experimental data as given in ChEMBL document CHEMBL1128456, “Synthesis and biological evaluation of N6-cycloalkyl derivatives of 1-deazaadenine nucleosides: a new class of anti-human immunodeficiency virus agents” (J Med Chem, 1995).

Tests used:
[1] = target: T1, Adenosine deaminase (Bos taurus, UniProt P56658); assay: Inhibition calf intestine adenosine deaminase
T1 sequence (P56658 whole entry): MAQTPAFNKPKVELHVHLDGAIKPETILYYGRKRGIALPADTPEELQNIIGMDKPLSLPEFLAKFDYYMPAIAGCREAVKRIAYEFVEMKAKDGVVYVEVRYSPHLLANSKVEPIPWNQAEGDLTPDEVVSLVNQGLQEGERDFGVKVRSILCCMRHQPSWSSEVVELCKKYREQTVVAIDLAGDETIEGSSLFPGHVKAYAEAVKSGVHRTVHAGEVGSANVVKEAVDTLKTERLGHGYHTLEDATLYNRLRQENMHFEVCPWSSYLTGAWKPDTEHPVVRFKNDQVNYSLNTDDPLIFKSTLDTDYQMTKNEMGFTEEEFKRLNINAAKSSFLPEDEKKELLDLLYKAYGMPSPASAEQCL

[2] = In vitro evaluation of cytotoxicity in C8166 cells infected with HIV-1 IIIB.; format: cell-based; details: human, read-out: TC50 (the source's name)
[3] = test system: Human immunodeficiency virus 1; assay: In vitro evaluation of anti-HIV-1 activity in C8166 cells infected with HIV-1 IIIB.; format: functional; details: Human immunodeficiency virus 1, C8166; read-out: ED50 (the source's name)

Compound | Ki [1] | CC50 [2] | EC50 [3]
OCC1CCC(n2cnc3c(NC4CCCCCCC4)ccnc32)O1 (stereo unspecified) | > 100 µM | 10 µM | 0.8 µM
OC[C@H]1OC(n2cnc3c(NC4CCCCCC4)cc(Cl)nc32)[C@H](O)[C@@H]1O (stereo partly specified) | > 100 µM | 50 µM | 8 µM
Nc1cc(Cl)nc2c1ncn2C1CCC(CO)O1 (stereo unspecified) | > 100 µM | > 100 µM | > 100 µM
OC[C@H]1O[C@@H](n2cnc3c(NC4CC4)ccnc32)[C@H](O)[C@@H]1O | 38 µM | > 100 µM | > 100 µM
OC[C@H]1O[C@@H](n2cnc3c(NC4CCCCCC4)cc(Cl)nc32)C[C@@H]1O | > 100 µM | 5 µM | 0.2 µM
Nc1ccnc2c1ncn2[C@@H]1O[C@H](CO)[C@@H](O)[C@H]1O | 0.38 µM | 2 µM | > 100 µM
CNc1cc(Cl)nc2c1ncn2C1CCC(CO)O1 (stereo unspecified) | 11 µM | > 100 µM | > 100 µM
OC[C@H]1O[C@@H](n2cnc3c(NC4CCCC4)cc(Cl)nc32)[C@H](O)[C@@H]1O | > 100 µM | 100 µM | 10 µM
OCC1CCC(n2cnc3c(NC4CC4)cc(Cl)nc32)O1 (stereo unspecified) | > 100 µM | > 100 µM | > 100 µM
OC[C@H]1O[C@@H](n2cnc3c(NC4CCC4)cc(Cl)nc32)[C@H](O)[C@@H]1O | 97 µM | 400 µM | 100 µM
OCC1CCC(n2cnc3c(NC4CCC4)cc(Cl)nc32)O1 (stereo unspecified) | > 100 µM | 250 µM | 4 µM
Nc1cc(Cl)nc2c1ncn2[C@@H]1O[C@H](CO)[C@@H](O)[C@H]1O | 30 µM | > 100 µM | > 100 µM
OCC1CCC(n2cnc3c(NC4CC4)ccnc32)O1 (stereo unspecified) | 78 µM | 750 µM | 100 µM
OCC1CCC(n2cnc3c(NC4CCCCC4)ccnc32)O1 (stereo unspecified) | 69 µM | 50 µM | 40 µM
OC[C@H]1O[C@@H](n2cnc3c(NC4CCCC4)ccnc32)[C@H](O)[C@@H]1O | > 100 µM | 400 µM | 16 µM
OC[C@H]1O[C@@H](n2cnc3c(NC4CCCCC4)ccnc32)[C@H](O)[C@@H]1O | > 100 µM | 400 µM | 100 µM
OC[C@H]1O[C@@H](n2cnc3c(NC4CCCCCC4)ccnc32)C[C@@H]1O | 42 µM | 80 µM | 30 µM
OCC1CCC(n2cnc3c(NC4CCCCCCC4)cc(Cl)nc32)O1 (stereo unspecified) | > 100 µM | 10 µM | 0.4 µM
OCC1CCC(n2cnc3c(NC4CCCC4)ccnc32)O1 (stereo unspecified) | > 100 µM | 500 µM | 80 µM
OC[C@H]1O[C@@H](n2cnc3c(NC4CC4)ccnc32)C[C@@H]1O | 50 µM | > 100 µM | > 100 µM
CNc1cc(Cl)nc2c1ncn2[C@H]1C[C@H](O)[C@@H](CO)O1 | 4.2 µM | > 100 µM | > 100 µM
OC[C@H]1O[C@@H](n2cnc3c(NC4CC4)cc(Cl)nc32)C[C@@H]1O | 75 µM | 500 µM | 8 µM
Nc1cc(Cl)nc2c1ncn2[C@H]1C[C@H](O)[C@@H](CO)O1 | 23 µM | > 100 µM | > 100 µM
Nc1ccnc2c1ncn2[C@H]1C[C@H](O)[C@@H](CO)O1 | 0.19 µM | > 100 µM | > 100 µM
OC[C@H]1OC(n2cnc3c(NC4CCCCCCC4)cc(Cl)nc32)[C@H](O)[C@@H]1O (stereo partly specified) | 71 µM | 40 µM | 2 µM

Compound | Ki [1] | CC50 [2] | EC50 [3]
OC[C@H]1O[C@@H](n2cnc3c(NC4CCCCCCC4)ccnc32)C[C@@H]1O | 59 µM | 40 µM | 4 µM
OC[C@H]1O[C@@H](n2cnc3c(NC4CCC4)ccnc32)C[C@@H]1O | 97 µM | 400 µM | 20 µM
OCC1CCC(n2cnc3c(NC4CCC4)ccnc32)O1 (stereo unspecified) | 92 µM | 400 µM | 50 µM
OC[C@H]1O[C@@H](n2cnc3c(NC4CCCC4)ccnc32)C[C@@H]1O | 22 µM | 400 µM | 40 µM
OC[C@H]1O[C@@H](n2cnc3c(NC4CCCCC4)cc(Cl)nc32)C[C@@H]1O | > 100 µM | 100 µM | 4 µM
CNc1ccnc2c1ncn2C1CCC(CO)O1 (stereo unspecified) | 2.2 µM | 100 µM | 50 µM
OC[C@H]1O[C@@H](n2cnc3c(NC4CCCCCCC4)cc(Cl)nc32)C[C@@H]1O | > 100 µM | 40 µM | 2 µM
OC[C@H]1OC(n2cnc3c(NC4CCCCCC4)ccnc32)[C@H](O)[C@@H]1O (stereo partly specified) | > 100 µM | 100 µM | 20 µM
OC[C@H]1O[C@@H](n2cnc3c(NC4CCCCC4)ccnc32)C[C@@H]1O | > 100 µM | 100 µM | 8 µM
OC[C@H]1O[C@@H](n2cnc3c(NC4CCCCC4)cc(Cl)nc32)[C@H](O)[C@@H]1O | > 100 µM | 50 µM | 20 µM
Nc1ncnc2c1ncn2[C@H]1CC[C@@H](CO)O1 | – | > 100 µM | 2 µM
OCC1CCC(n2cnc3c(NC4CCCCCC4)cc(Cl)nc32)O1 (stereo unspecified) | > 100 µM | 8 µM | 0.8 µM
OC[C@H]1O[C@@H](n2cnc3c(NC4CC4)cc(Cl)nc32)[C@H](O)[C@@H]1O | > 100 µM | 500 µM | 30 µM
OC[C@H]1O[C@@H](n2cnc3c(NC4CCCC4)cc(Cl)nc32)C[C@@H]1O | > 100 µM | 7 µM | 0.8 µM
OC[C@H]1O[C@@H](n2cnc3c(NC4CCC4)cc(Cl)nc32)C[C@@H]1O | > 100 µM | 400 µM | 4 µM
CNc1cc(Cl)nc2c1ncn2C1O[C@H](CO)[C@@H](O)[C@H]1O (stereo partly specified) | 69 µM | > 100 µM | > 100 µM
Nc1ccnc2c1ncn2C1CCC(CO)O1 (stereo unspecified) | 2.5 µM | > 100 µM | > 100 µM
OCC1CCC(n2cnc3c(NC4CCCC4)cc(Cl)nc32)O1 (stereo unspecified) | > 100 µM | 50 µM | 20 µM
CNc1ccnc2c1ncn2C1O[C@H](CO)[C@@H](O)[C@H]1O (stereo partly specified) | 12 µM | > 100 µM | > 100 µM
OC[C@H]1OC(n2cnc3c(NC4CCCCCCC4)ccnc32)[C@H](O)[C@@H]1O (stereo partly specified) | 80 µM | 50 µM | 4 µM
OCC1CCC(n2cnc3c(NC4CCCCCC4)ccnc32)O1 (stereo unspecified) | 53 µM | 40 µM | 8 µM
OCC1CCC(n2cnc3c(NC4CCCCC4)cc(Cl)nc32)O1 (stereo unspecified) | > 100 µM | 20 µM | 4 µM
CNc1ccnc2c1ncn2[C@H]1C[C@H](O)[C@@H](CO)O1 | 0.25 µM | > 100 µM | > 100 µM
OC[C@H]1O[C@@H](n2cnc3c(NC4CCC4)ccnc32)[C@H](O)[C@@H]1O | 100 µM | > 100 µM | > 100 µM
